Results as given in US11940442B2, “Method and system for determining integrated metabolic baseline and potential of living cells” (AGILENT TECHNOLOGIES, INC., priority 2015, dated 2024).

What was measured:
[1] = test system: RAW 264.7 macrophage cells; details: RAW 264.7 cells, in the presence of 1.0 μM oligomycin; FCCP 0.125-2 μM tested
Description: Cultured cells are first seeded into the wells of an appropriate microplate (also referred to herein as a multi-well plate) for the instrument being used (as described above). • 2. After adherence to the microplate, cells are either allowed to grow as desired, or may be assayed for metabolic potential immediately. • 3. At time of assay, cell culture media is exchanged for a volume of assay media appropriate for the microplate being used to create a cell sample including a plurality of cells disposed in a media. The microplate is allowed to incubate for 1 h at 37° C. in a non-CO2 incubator. • 4. […] To titrate optimal FCCP concentration in an XFe96 instrument, RAW 264.7 macrophages are exposed to varying concentrations of the drug, and the resulting OCR is measured. In this example, cells were first treated with 1.0 μM oligomycin (final concentration in 200 μl assay media), OCR was measured, and then one of the following concentrations of FCCP was added: 0.125, 0.25, 0.5, 1.0, or 2.0 μM (final concentration in 222 μl assay media). […] The metabolic potential of the cell sample may be determined by (i) providing the initial oxygen consumption rate, the initial extracellular acidification rate, the subsequent oxygen consumption rate, and the subsequent extracellular acidification rate to a software program, and (ii) using the software program to calculate the metabolic potential. […]

[2] = test system: C2C12 myoblast cells; assay: Metabolic potential (OCR/ECAR, XFp) after co-injection of FCCP and oligomycin, UK5099 treatment; format: cell-based; details: 2 μM UK5099, 1 hour; stress 0.5 μM FCCP + 1.0 μM oligomycin
Description: C2C12 myoblast cells were seeded into XFp microplates at a density of 1.2×10^4 cells/well.
Treated cells received media containing 2 μM UK5099 (a potent inhibitor of the mitochondrial pyruvate carrier), control cells received assay media.
(§1) Metabolic potential was measured using an XFp Extracellular Flux Analyzer (Seahorse Bioscience) and XFp assay cartridges (Seahorse Bioscience). Briefly, microplates containing UK5099-treated and control cells were placed in the XFp Extracellular Flux Analyzer, and initial OCR and ECAR measurements are taken.

[3] = test system: C2C12 myotubes; assay: Metabolic potential (OCR/ECAR, XFp) after co-injection of FCCP and oligomycin, etomoxir treatment; format: cell-based; details: 40 μM etomoxir, 1 hour; stress 0.5 μM FCCP + 1.0 μM oligomycin
Description: C2C12 myoblast cells were seeded into XFp microplates at a density of 1.2×10^4 cells/well. […] During differentiation, medium was replaced with fresh differentiation medium every other day. […] Metabolic potential was measured using an XFp Extracellular Flux Analyzer (Seahorse Bioscience) and XFp assay cartridges (Seahorse Bioscience). Briefly, microplates containing etomoxir-treated and control myotubes were placed in the XFp Extracellular Flux Analyzer, and initial OCR and ECAR measurements are taken.

[4] = test system: RAW 264.7 macrophage cells; assay: Metabolic potential (OCR/ECAR, XFp) after co-injection of FCCP and oligomycin, LPS treatment; format: cell-based; details: 1 μg/ml LPS, 1 hour; stress 0.5 μM FCCP + 1.0 μM oligomycin
Description: Cells treated with LPS received media containing 1 μg/ml LPS, control cells received assay media.
as §1, with “LPS-treated” for “UK5099-treated”

Compound: N#CC(C#N)=NNc1ccc(OC(F)(F)F)cc1 [FCCP, carbonyl cyanide p-trifluoromethoxyphenylhydrazone]
- FCCP concentration at which maximal OCR is achieved [1]: 0.5 µM

Compound: N#C/C(=C\c1cn(-c2ccccc2)c2ccccc12)C(=O)O [UK5099]
- aerobic metabolic potential relative to control cells [2]: decreased
- glycolytic metabolic potential relative to control cells [2]: decreased

Compound: CCOC(=O)[C@@]1(CCCCCCOc2ccc(Cl)cc2)CO1 [etomoxir]
- aerobic metabolic potential compared to control myotubes [3]: increased
- glycolytic metabolic potential compared to control myotubes [3]: slightly decreased

Compound: lipopolysaccharide [LPS]
- aerobic metabolic potential relative to control cells [4]: increased
- glycolytic potential relative to control cells [4]: roughly unchanged
